The text below walks through data of PubChem BioAssay (NCI).

Usually TGI stands for the concentration giving total growth inhibition. Lower therefore signals greater sensitivity of the cells. The term GI50 denotes the concentration that inhibits growth by half.

Assay in all cases: DTP human tumour cell line panel, 48 h
Test [1] deals with U251 CNS.
The subject of test [2] is SR leukemia.
Test [3] deals with A549 NSCLC.
Test [4] deals with HL-60(TB) leukemia.
The subject of test [5] is KM12 colon.
Test [6] has as its system UACC-257 melanoma.
The test system of test [7] is TK-10 renal.
Test [8] deals with OVCAR-8 ovarian.
The test system of test [9] is MOLT-4 leukemia.
Test [10] has as its system UACC-62 melanoma.

Molecules are shown by their SMILES. “And” between values parts separate entries of the source, which are not always exact repeats. Equal values may be shown once.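 Cells were grown in 96-well plates and exposed to each compound for 48 hours at five concentrations; endpoints were interpolated linearly between bracketing concentrations, or set to the highest concentration if not reached. Abbreviation: GI50, concentration required for 50% inhibition of growth. TGI is the concentration that stops growth completely.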 A value given as a limit tells only on which side of the number the result lay.

With `O=C1C2C3C=C4c5ccccc5N(c5ccccc5)C4(C2C(=O)N1c1ccccc1)C1C(=O)N(c2ccccc2)C(=O)C31` (stereo not drawn), the TGI in test [1], in test [2], in test [3], in [4], in test [5] and in [6] was > 100 µM each time. Moreover, the TGI in test [7], in [8] and in test [9] was > 100 µM throughout.

Turning to `Cn1ncc(-c2ccc3c(=O)[nH]nc(CN)c3c2)c1-c1c(F)c(Cl)cc(OC2CC2)c1C#N`, the GI50 in test [1] is 14.9 µM and 13.7 µM; in test [2], 13.1 µM and 12.3 µM; in [3], 15.8 µM and 15.4 µM; in [4], 20.6 µM and 23.1 µM; in test [5] it was 13900 nM and 12400 nM; in [6] it was 13.9 µM and 14.1 µM. Moreover, the GI50 is 16.2 µM and 13.7 µM in test [7]; 13.9 µM and 13.7 µM in test [8]; 10.9 µM and 11.7 µM in [9]. Besides, the TGI in test [1] was 29.5 µM and 27.5 µM; in test [2], 34.8 µM and 41 µM; in test [3], 33.9 µM and 32.2 µM; in [4] it was > 100 µM; in test [5] it was 28.3 µM and 25.6 µM; in [6] it was 28.4 µM and 29.4 µM. The TGI is 31.8 µM and 27.2 µM in [7]; 27.4 µM and 27.1 µM in [8]; > 100 µM in test [9].

`Cc1cc2c(C)nn(Cc3ccccc3)c2c(C(=O)O)c1C`: the TGI in test [1], in test [2], in [3], in test [4], in test [6] and in test [7] was > 100 µM in each case. The TGI in test [10], in test [8] and in test [9] was > 100 µM in each case.

For the molecule `COc1cc(C)ccc1C(=O)c1ccc(C)cc1OC`, the GI50 in [1] is 3.06 µM; in test [2] it was 0.567 µM; in test [3], 3.35 µM; in [5], 926 nM; in [6], 54.8 µM; in test [7] it was 9.15 µM. In addition, the GI50 is 4450 nM in test [10], 4.89 µM in test [8] and 7.66 µM in test [9]. Further, the TGI in test [1], in [2], in [3], in test [5], in test [6] and in [7] was > 100 µM throughout. Also, the total growth inhibition concentration (TGI) in [10], in test [8] and in [9] was > 100 µM each time.

`COc1cccc(-c2nc3cc(NC(=O)c4ccc(Cl)c(C#N)c4)ccc3o2)c1`: the GI50 in test [2] was 35.1 µM; in [3], 1.88 µM; in [4] it was > 100 µM; in test [5], 1950 nM; in [6], 3.81 µM; in test [7] it was 3.39 µM. For the same molecule, the GI50 is 3290 nM in test [10] and > 100 µM in test [9]. In addition, the TGI in test [2] is > 100 µM; in [3], 3.8 µM; in test [4] it was > 100 µM; in test [5], 4.48 µM; in test [6], > 100 µM; in test [7] it was 9 µM. Moreover, the TGI in [10] and in test [9] was > 100 µM each time.

For `O=C1OCC2=C1C(c1cccc(F)c1)c1cc3c(cc1N2CCO)OCO3` (stereo not drawn), the GI50 in test [1] is 2.5 µM; in [2], 0.294 µM; in [3], 8.74 µM; in [5], 1480 nM; in [6], > 50 µM; in test [7] it was 15.6 µM. Besides, the GI50 in test [10] was 2250 nM; in [8], 3.18 µM; in [9], 3.02 µM. The TGI in test [1], in [2], in [3], in test [5], in [6] and in test [7] was > 50 µM each time. Further, the TGI in test [10], in [8] and in [9] was > 50 µM each time.

Take `CN(C)CCNC(=O)Cn1ccc(=O)c2cc([N+](=O)[O-])ccc21`: the TGI in test [1], in [2], in test [3], in test [4], in test [5] and in [6] was > 100 µM throughout. Further, the TGI in [7], in test [10] and in test [9] was > 100 µM throughout.

In the case of `COc1cc(Cl)cc(=O)c(O)c1OC`, the TGI is > 100 µM in [1]; > 100 µM in test [2]; > 80.9 µM in test [4]; > 100 µM in [5]; > 100 µM in test [6]; > 100 µM in [7]. In addition, the TGI in [10] is 70.7 µM; in test [8], > 100 µM; in [9] it was > 100 µM.

Regarding `CCc1cccc(C)c1NS(=O)(=O)c1ccccc1`, the TGI in test [1], in test [3], in test [4], in test [5], in test [6] and in test [7] was > 100 µM in each case. Also, the TGI in test [10], in test [8] and in test [9] was > 100 µM in each case.

On to `O=C1/C(=C/c2ccc([N+](=O)[O-])cc2)CN(C(=O)CCN2CCC(=NO)CC2)C/C1=C\c1ccc([N+](=O)[O-])cc1`, for which the GI50 was 0.509 µM in test [1]; 2.85 µM in [3]; 1.85 µM in test [4]; 448 nM in [5]; 2.43 µM in [6]; 2.01 µM in test [7]. In addition, the GI50 is 866 nM in test [10], 0.806 µM in test [8] and 0.409 µM in test [9]. The TGI in [1] came out at 2.03 µM; in test [3], 12.4 µM; in test [4], 6.88 µM; in [5] it was 1.18 µM; in test [6], 7.97 µM; in [7], 6.14 µM. In addition, the concentration for total growth inhibition (TGI) in test [10] is 2.49 µM; in test [8] it was 5.5 µM; in test [9] it was > 20 µM.
